Assay results: patent US20230055705A1, “SUBSTITUTED THIOPHENE CARBOXAMIDES AND DERIVATIVES THEREOF” (Bayer Aktiengesellschaft, priority 2019, published 2023)
Where two headings read alike, the source gives them in different places.

Key:
[1] = test system: Xanthomonas campestris pv. campestris; assay: Xanthomonas campestris pv. campestris in vitro cell test; type: cell-based; details: read-out: efficacy (inhibition of bacteria growth)
Description: • Solvent: DMSO • Culture medium: LB broth medium (Luria Broth Miller) Sigma • Inoculum: bacteria suspension
Compounds were solubilized in DMSO and the solution used to prepare the required range of concentrations. The final concentration of DMSO used in the assay was ≤1%.
(§1) Inoculum was prepared from a pre-culture of bacteria grown in liquid medium and diluted to the desired optical density (OD).
(§2) Compounds were evaluated for their ability to inhibit bacteria growth in liquid culture assay. The compounds were added in the desired concentrations to culture medium containing the bacteria suspension. After 24 h of incubation, the efficacy of compounds was determined by spectrometric measurement of bacteria growth. Inhibition was determined by comparing the absorbance values in wells containing the compounds with the absorbance in control wells without active ingredients.

[2] = test system: salicylate responsive promoter sequence of the PR1 (pathogenesis-related protein I) gene (AT2G14610); assay: Induction of defense gene expression in Arabidopsis thaliana (PR1 promoter-GFP reporter plants); type: in vivo; details: Arabidopsis thaliana, 72 h, 3rd day after spraying, mock treated leaves set as 1.00, read-out: relative fluorescence value; for fold induction at 75 ppm: 75 ppm of compound
Description: Arabidopsis thaliana reporter plants containing the coding sequence of a green fluorescent protein (GFP) linked to the salicylate responsive promoter sequence of the PR1 (pathogenesis-related protein I) gene (AT2G14610) were grown for five days and then sprayed with compounds. On the 3rd day after spraying, plant fluorescence was assessed with a MacroFluo instrument from Leica Microsystems (Wetzlar, Germany). Fluorescences were quantified with the Meta-Morph Microscopy Automation & Image Analysis Software (Molecular Devices, Sunnyvale, Calif., United States). Background fluorescence in mock treated leaves was set as 1.00.

Peronospora parasitica = assay: In vivo preventive test on Peronospora parasitica (Crucifer downy mildew); details: Hyaloperonospora parasitica, in Brassica oleracea, 120 h, cabbage, evaluated 5 days after inoculation, read-out: efficacy; for pest or weed control at 31 ppm: 31 ppm of active ingredient; for pest or weed control at 500 ppm: 500 ppm of active ingredient; for pest or weed control at 125 ppm: 125 ppm of active ingredient
Description: (§3) The tested active ingredients were prepared by homogenization in a mixture of acetone/Dimethyl sulfoxide/Tween®, and then diluted with water to obtain the desired active material concentration. The young plants of cabbage were treated by spraying the active ingredient prepared as described above. Control plants were treated only with an aqueous solution of acetone/Dimethyl sulfoxide/Tween®.
After 72 hours, the plants were contaminated by spraying the leaves with an aqueous suspension of Peronospora parasitica spores. The contaminated cabbage plants were incubated for 5 days at 20° C. and at 100% relative humidity.
The test was evaluated 5 days after the inoculation. 0% means an efficacy which corresponds to that of the control plants while an efficacy of 100% means that no disease was observed.
Compounds CMP2 and CMP3 were tested in an in vivo preventive test on Peronospora parasitica (Crucifer downy mildew) in the same conditions as described in Example G.

Uromyces appendiculatus = assay: In vivo preventive test on Uromyces appendiculatus (bean rust); details: 240 h, evaluated 10 days after inoculation, read-out: efficacy; for pest or weed control at 125 ppm: 125 ppm of active ingredient; for pest or weed control at 500 ppm: 500 ppm of active ingredient
Description: as §3, with “bean” for “cabbage”
(§4) After 72 hours, the plants were contaminated by spraying the leaves with an aqueous suspension of Uromyces appendiculatus spores. The contaminated bean plants were incubated for 24 hours at 20° C. and at 100% relative humidity and then for 9 days at 20° C. and at 70-80% relative humidity. The test was evaluated 10 days after the inoculation. 0% means an efficacy which corresponds to that of the control plants while an efficacy of 100% means that no disease was observed.
Compounds CMP5 and CMP6 were tested in an in vivo preventive test on Uromyces appendiculatus (bean rust) in the same conditions as described in Example I.

[3] = test system: Pseudomonas syringae pv. tomato; assay: Pseudomonas syringae pv. tomato in vitro cell test; type: cell-based; details: 20 ppm of active ingredient, 24 h incubation, read-out: efficacy (inhibition of bacteria growth)
Description: Culture medium: LB broth medium (Luria Broth Miller) Sigma
Inoculum: bacteria suspension
Compounds were solubilized in DMSO and the solution used to prepare the required range of concentrations. The final concentration of DMSO used in the assay was 1%.
as §1, §2

[4] = test system: Xanthomonas campestris pv. campestris; assay: In vivo preventive test on Xanthomonas campestris pv. campestris (black rot on cabbage); details: for pest or weed control at 125 ppm: 125 ppm of active ingredient
Description: The tested active ingredients were prepared by homogenization in a mixture of acetone/Dimethyl sulfoxide/Tween®, and then diluted with water to obtain the desired active material concentration.
The young plants of cabbage were treated by spraying the active ingredient prepared as described above. Control plants were treated only with an aqueous solution of acetone/Dimethyl sulfoxide/Tween®.
After 72 hours, the plants were contaminated by spraying the leaves with an aqueous bacteria suspension of Xanthomonas campestris pv. campestris. The contaminated cabbage plants were incubated for 8 or 10 days at 27° C. at 95% relative humidity.
The test was evaluated 8 or 10 days after the inoculation. 0% means an efficacy which corresponds to that of the control plants while an efficacy of 100% means that no disease was observed. […]
Compounds CMP1, CMP2, CMP3 and CMP4 were tested in an in vivo preventive test on Xanthomonas campestris pv. campestris (black rot on cabbage) in the same conditions as described in Example H.

[5] = test system: Colletotrichum lindemuthianum; assay: In vivo preventive test on Colletotrichum lindemuthianum (Antrachnose on bean); details: 144 h, inoculation 72 h after spraying, evaluated 6 days after inoculation, read-out: efficacy; for pest or weed control at 500 ppm: 500 ppm of active ingredient; for pest or weed control at 31 ppm: 31 ppm of active ingredient
Description: as §3, with “bean” for “cabbage”
as §4, with “of Colletotrichum lindemuthianum” for “of Uromyces appendiculatus”, “for 5” for “for 9”, “at 90%” for “at 70-80%”, “evaluated 6” for “evaluated 10”
Compound CMP1 was tested in an in vivo preventive test on Colletotrichum lindemuthianum (Antrachnose on bean) in the same conditions as described in Example F.

[6] = LogP by HPLC on reversed phase columns (EEC directive 79/831 Annex V.A8); type: physicochemical; details: reversed phase HPLC columns
Description: In the above tables, measurement of LogP values was performed according to EEC directive 79/831 Annex V.A8 by HPLC (High Performance Liquid Chromatography) on reversed phase columns with the following methods: • ^[a]
Calibration was done with straight-chain alkan2-ones (with 3 to 16 carbon atoms) with known LogP values (measurement of LogP values using retention times with linear interpolation between successive alkanones). Lambda-max-values were determined using UV-spectra from 200 nm to 400 nm and the peak values of the chromatographic signals.

[7] = test system: Pseudomonas syringae pv. tomato; assay: In vivo preventive test on Pseudomonas syringae pv. tomato (bacterial speck on tomato); details: evaluated 5 or 6 days after inoculation, read-out: efficacy; for pest or weed control at 500 ppm: 500 ppm of active ingredient; for pest or weed control at 31 ppm: 31 ppm of active ingredient
Description: as §3, with “tomato” for “cabbage”
After 72 hours, the plants were contaminated by spraying the leaves with an aqueous bacteria suspension of Pseudomonas syringae pv. tomato. The contaminated tomato plants were incubated for 4 days in saturated atmosphere at 22° C. day/20° C. night—70% HR and then for 1 or 2 days at 22° C. day/20° C. night at 70-80% relative humidity.
The test was evaluated 5 or 6 days after the inoculation. 0% means an efficacy which corresponds to that of the control plants while an efficacy of 100% means that no disease was observed.
Compounds CMP1 and CMP4 were tested in an in vivo preventive test on Pseudomonas syringae pv. tomato (bacterial speck on tomato) in the same conditions as described in Example J.

[8] = 20 ppm of active ingredient, 24 h incubation
[9] = evaluated 8 or 10 days after inoculation, read-out: efficacy
[10] = method [a]: LC-UV, in an acidic range, with 0.1% formic acid in water and acetonitrile as eluent (linear gradient from 10% to 95% acetonitrile)
[11] = 31 ppm of active ingredient, evaluated 8 or 10 days after inoculation, read-out: efficacy
[12] = method [a]: LC-UV, acidic range, 0.1% formic acid in water and acetonitrile as eluent (linear gradient 10% to 95% acetonitrile)

chromatographic logP [6, 10]	chromatographic logP ([6]; given in the preparation examples, method not marked)	SMILES	inhibition at 20 ppm [1, 8] [%]	fold induction at 300 ppm [2]	pest or weed control at 31 ppm (Peronospora parasitica) [%]	pest or weed control at 500 ppm (Peronospora parasitica) [%]	pest or weed control at 125 ppm (Uromyces appendiculatus) [%]	pest or weed control at 500 ppm (Uromyces appendiculatus) [%]	inhibition at 20 ppm [3] [%]	pest or weed control at 125 ppm [4, 9] [%]	pest or weed control at 500 ppm [5] [%]	pest or weed control at 500 ppm [7] [%]	fold induction at 75 ppm [2]	pest or weed control at 125 ppm (Peronospora parasitica) [%]	pest or weed control at 31 ppm [4, 11] [%]	pest or weed control at 31 ppm [5] [%]	pest or weed control at 31 ppm [7] [%]	chromatographic logP [6, 12]	inhibition at 20 ppm ([1]; 24 h) [%]	pest or weed control at 31 ppm ([4]; read-out: efficacy, 31 ppm of active ingredient, evaluated 8 or 10 days after inoculation) [%]
4.44		CCOC(=O)C(Cc1c[nH]c2ccccc12)NC(=O)c1sc(Cl)c(Cl)c1Cl (stereo not drawn) [I.013]	≤ 30	> 2	80 to 89	90 to 100	70 to 79	90 to 100	≤ 30	80 to 89	80 to 89									
2.64	2.59	N#CCNC(=O)c1sc(Cl)c(Cl)c1Cl [I.025, 3,4,5-trichloro-N-(cyanomethyl)thiophene-2-carboxamide]	≤ 30	> 2	80 to 89	90 to 100			≤ 30		90 to 100	80 to 89	> 2	80 to 89	70 to 79	90 to 100				
3.83		CCOC(=O)C(COC)NC(=O)c1sc(Cl)c(Cl)c1Cl (stereo not drawn) [I.059]	≤ 30	> 2	80 to 89	90 to 100	90 to 100	90 to 100	≤ 30	70	90 to 100	90 to 100	> 2	70 to 79	90 to 100	70 to 79				
3.72		COC(=O)C(C)N(OC)C(=O)c1sc(Cl)c(Cl)c1Cl (stereo not drawn) [I.109]		> 2	90 to 100	90 to 100	90 to 100	90 to 100		70 to 79	90 to 100	80 to 89	> 2	90 to 100						
2.83		CON(C(=O)c1sc(Cl)c(Cl)c1Cl)C(C)C(=O)O (stereo not drawn) [I.111]		> 2		90 to 100	90 to 100	90 to 100		70 to 79	70 to 79	80 to 89		80 to 89						
		COC(=O)C(NC(=O)c1sc(Cl)c(Cl)c1Cl)c1cccs1 (stereo not drawn) [I.124]	≤ 30	> 2	90 to 100		90 to 100		≤ 30				> 2	90 to 100		90 to 100	80 to 89	4.22		
		CNC(=S)SC[C@H](NC(=O)c1sc(Cl)c(Cl)c1Cl)C(=O)OC [I.140]		> 2	90 to 100		90 to 100		≤ 30				> 2	90 to 100			70 to 79	3.52	≤ 30	90 to 100
